According to ChEMBL document CHEMBL1129628, “Effect of ring size or an additional heteroatom on the potency and selectivity of bicyclic benzylamine-type inhibitors of phenylethanolamine N-methyltransferase” (J Med Chem, 1996):

How the values were obtained:
[1] = biological target: T1, Phenylethanolamine N-methyltransferase (Bos taurus, UniProt P10938); test: In vitro for inhibition of Phenylethanolamine N-Methyltransferase (PNMT)
T1 sequence (P10938 whole entry): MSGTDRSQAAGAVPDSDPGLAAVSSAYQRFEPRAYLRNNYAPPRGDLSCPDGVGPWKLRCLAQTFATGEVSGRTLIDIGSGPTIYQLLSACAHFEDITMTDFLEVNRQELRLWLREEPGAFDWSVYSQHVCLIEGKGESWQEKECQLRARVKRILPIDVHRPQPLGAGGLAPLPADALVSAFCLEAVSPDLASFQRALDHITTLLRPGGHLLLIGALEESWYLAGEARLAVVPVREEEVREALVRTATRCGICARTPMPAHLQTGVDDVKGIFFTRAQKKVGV

[2] = Selectivity ratio between Ki of alpha-2 adrenoceptor and Ki of PNMT
[3] = biological target: T2, Adrenergic receptor alpha-2 (Rattus norvegicus, UniProt P22086+P19328+P22909); test: In vitro for binding affinity against Alpha-2 adrenergic receptor by radioligand [3H]clonidine in rat
T2 sequence (P22086 whole entry): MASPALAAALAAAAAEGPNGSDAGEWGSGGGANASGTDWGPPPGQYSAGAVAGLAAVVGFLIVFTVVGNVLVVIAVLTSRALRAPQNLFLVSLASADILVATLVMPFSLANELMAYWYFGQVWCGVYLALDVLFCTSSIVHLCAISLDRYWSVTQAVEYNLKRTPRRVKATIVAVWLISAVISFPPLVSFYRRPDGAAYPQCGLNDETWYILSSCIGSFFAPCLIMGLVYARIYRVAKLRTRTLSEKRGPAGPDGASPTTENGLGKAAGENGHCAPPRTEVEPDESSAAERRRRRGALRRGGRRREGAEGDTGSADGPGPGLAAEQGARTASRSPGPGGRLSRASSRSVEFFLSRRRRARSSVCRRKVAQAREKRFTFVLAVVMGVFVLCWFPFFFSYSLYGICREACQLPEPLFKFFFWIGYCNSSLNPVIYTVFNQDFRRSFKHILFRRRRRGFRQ
T2 sequence (P19328 whole entry): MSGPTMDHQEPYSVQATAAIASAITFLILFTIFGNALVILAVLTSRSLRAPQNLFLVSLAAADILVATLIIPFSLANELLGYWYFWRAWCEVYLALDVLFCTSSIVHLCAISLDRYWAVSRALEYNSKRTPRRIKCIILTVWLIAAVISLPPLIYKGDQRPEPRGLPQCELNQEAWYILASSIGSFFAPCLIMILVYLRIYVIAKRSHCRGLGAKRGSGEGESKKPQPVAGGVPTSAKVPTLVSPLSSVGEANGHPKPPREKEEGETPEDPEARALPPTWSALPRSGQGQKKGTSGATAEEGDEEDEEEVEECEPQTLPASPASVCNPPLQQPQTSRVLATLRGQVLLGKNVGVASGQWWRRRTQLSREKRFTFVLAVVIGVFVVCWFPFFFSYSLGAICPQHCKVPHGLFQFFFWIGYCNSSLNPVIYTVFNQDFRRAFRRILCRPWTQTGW
T2 sequence (P22909 whole entry): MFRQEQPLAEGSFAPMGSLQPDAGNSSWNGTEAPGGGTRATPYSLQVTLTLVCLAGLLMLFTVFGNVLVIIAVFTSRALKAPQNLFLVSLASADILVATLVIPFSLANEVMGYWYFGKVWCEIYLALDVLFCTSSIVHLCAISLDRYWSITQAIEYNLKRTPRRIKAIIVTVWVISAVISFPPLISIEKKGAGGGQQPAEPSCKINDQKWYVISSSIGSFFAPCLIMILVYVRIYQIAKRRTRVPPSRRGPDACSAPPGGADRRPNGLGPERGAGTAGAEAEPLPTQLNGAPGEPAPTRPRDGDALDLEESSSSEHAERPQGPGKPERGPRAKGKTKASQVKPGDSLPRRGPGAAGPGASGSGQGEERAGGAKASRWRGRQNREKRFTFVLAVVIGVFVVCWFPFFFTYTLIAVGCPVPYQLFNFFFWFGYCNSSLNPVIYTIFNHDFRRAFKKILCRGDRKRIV

Compound | Ki [1] [µM] | Ratio [2] | Ki [3] [µM]
C[C@@H]1Cc2ccccc2CN1 | 38.3 | 0.16 | 6.2
c1ccc2c(c1)CNCCO2 | 21.2 | 0.19 | 4.1
c1ccc2c(c1)CNCCS2 | 4.1 | 1.1 | 4.6
c1ccc2c(c1)CCNC2 [1,2,3,4-TETRAHYDROISOQUINOLINE] | 9.67 | […] | […]
NCc1ccccc1 [BENZYLAMINE] | 179 | 0.11 | 20
c1ccc2c(c1)CCCNC2 | 3.34 | 3.2 | 11
c1ccc2c(c1)CNC2 | 231 | 0.0035 | 0.82
C[C@H]1Cc2ccccc2CN1 | 1.01 | 0.51 | 0.52
c1ccc2c(c1)CCCCNC2 | 21.3 | 0.73 | 16
c1ccc2c(c1)CNCCN2 | 28 | 0.093 | 2.6
CC1Cc2ccccc2CN1 (racemic) | 2.13 | 0.39 | 0.84
